Test results from patent publication US7951979B2, “2,4,6-trisubstituted phenols having anesthetic properties” (University of Iowa Research Foundation, priority 2006, dated 2011).

Assays:
[1] = test system: rats; test: i.v. injection into the lateral tail vein of rats, loss of righting reflex / anesthesia
Description: Compound 1 was formulated in 16% Cremophor EL solution in water at a concentration of approximately 15 mg/ml and tested in rats as follows.
Approximately 15 mg/kg of Compound 1 in the suspension were injected into the lateral tail vein of two rats (weight 330-340 g).

[2] = test system: GABA receptors; test: in vitro assay for direct GABA activation; assay type: cell-based; conditions: FIG. 2
Description: Propofol and analogs are known to activate GABA receptors (see, e.g., Trapani et al., J. Med. Chem. 1998, 41, 1846-1854, incorporated herein by reference). While the relationship between GABA activation and anesthetic activity is not completely clear, it is believed that the ability of a compound to directly activate GABA receptors may be related to the anesthetic, sedative, and/or anxiolytic activity of the compound. Compounds of the invention can be tested in in vitro electrophysiological assays to determine the ability of the compound to activate GABA receptors.
Compound 1 was synthesized as described in Example 1. The compound was tested in an in vitro assay for direct GABA activation.

[3] = Rat 1, approximately 15 mg/kg i.v. (lateral tail vein), 16% Cremophor EL in water
[4] = rat, conditions similar to Example 2 (similar dose and route of administration)

Row | SMILES | time post-injection at which the rat appeared normal [1, 3] | total time of loss of righting reflex [1, 3] | total time of loss of righting reflex ([1]; Rat 2 (agitated prior to injection), approximately 15 mg/kg i.v. (lateral tail vein), 16% Cremophor EL in water) | duration of anesthesia ([1]; rats, about 15 mg/kg i.v.) | tremors, agitation or excitement on injection ([1]; rats, about 15 mg/kg i.v.) | overall anesthetic activity ([1]; rats, i.v.) | direct activation of GABA receptors [2] | induction of anesthesia [1, 4] | tremors and shaking upon i.v. injection [1, 4]
1 | CC(C)c1cc(C(O)C(F)(F)F)cc(C(C)C)c1O (stereo not drawn) [Compound 1, 2,6-diisopropyl-4-(2,2,2-trifluoro-1-hydroxy-ethyl)-phenol] | about 7.5 minutes | about 3.5 minutes | about 2.0 minutes | 2 to 3 min | without tremors, agitation or excitement | potent short-acting i.v. anesthetic | capable of direct activation of GABA receptors |  | 
2 | CC(C)c1cc(C(=O)C(F)(F)F)cc(C(C)C)c1O [Compound 2, 2,2,2-trifluoro-1-(4-hydroxy-3,5-diisopropyl-phenyl)-ethanone] |  |  |  |  |  |  |  | did not appear to induce anesthesia | caused tremors and shaking
